Reference: US5770563A, “Heparin- and sulfatide binding peptides from the type I repeats of human thrombospondin and conjugates thereof” (The United States of America as represented by the …, priority 1995, dated 1998)
Like-named read-outs stand apart in the source and are kept apart here. Square brackets hold non-standard residues; d marks the D form. Peptide text beside a SMILES is read from it. Ava = NCCCCC(=O)O; Mpa = O=C(O)CCS

What was measured:
[1] = target: laminin binding to sulfatide; assay: Inhibition of 125I-laminin binding to sulfatide; design: species or system mouse; settings: Table 2, free peptide
Procedure: (§1) The peptides were tested as inhibitors of laminin, thrombospondin or apolipoprotein E binding to a heparin-bovine serum albumen conjugate or to a sulfatide in a solid phase assay essentially following the procedure described in Zabrenetzky et al., Cancer Res., Vol. 50, pages 5937-5942 (1990). Sulfatide (0.2 μg/well for thrombospondin binding, 0.6 μg/well for laminin binding) was immobilized in a mixture of 50 ng of phosphatidyl choline, and 30 ng of cholesterol on polyvinyl chloride microtiter plates. Heparin-BSA (0.2 μg/well) was absorbed onto polyvinyl chloride microtiter plate wells by incubation of 50 μl of Dulbecco's PBS for 2 h at 37°. The wells were emptied and filled with 50 mM tris, pH 7.8 containing 150 mM NaCl, 1 mM CaCl2, 0.025% NaN3, and 1% BSA. After 30 minutes, the wells were emptied and 30 μl of various concentrations of potential inhibitory peptides diluted in the same buffer or buffer alone and 30 μl of ^125 I-labeled laminin, thrombospondin or apolipoprotein E (0.2 μg/ml) were added to each well. After 3 hours at 4°, the wells were washed 6 times with 0.15M NaCl, cut from the plate and the bound radioactivity counted. FIGS. 1A-B and 2A-B show the level of thrombospondin binding to sulfatide and heparin-BSA, respectively, in the presence of increasing concetrations of the peptides listed. FIGS. 3 and 4A-B show the level of laminin binding to sulfatide and heparin-BSA, respectively, in the presence of increasing concentrations of the listed peptides.

[2] = target: thrombospondin binding to heparin; assay: Inhibition of 125I-thrombospondin binding to immobilized heparin-BSA; design: species or system human; settings: for inhibition of thrombospondin binding to heparin, in words: free peptide
Procedure: as §1
Microtiter plate wells were coated with heparin-BSA. Heparin-BSA (0.2 μg/well) was adsorbed by incubation in 50 μl of Dulbecco's PBS for 2 h at 370. The wells were emptied, filled with tris-BSA, and incubated for 30 to 60 minutes. The buffer was removed, and labelled thrombospondin was added and incubated in the wells for 3 h at 40. The wells were emptied and washed 4 times with saline. The bottoms of the wells were cut from the plate and counted to quantify thrombospondin binding. Inhibition of thrombospondin binding was determined using peptides diluted in 30 μl of 50 mM tris buffer, pH 7.8, containing 110 mM NaCl, 1 mM CaCl2, 0.025% NaN3, and 1% BSA or buffer alone and 30 μl of ^125 I-labeled TSP (0.2 μg/ml).

[3] = target: laminin binding to heparin; assay: Inhibition of 125I-laminin binding to heparin-BSA; design: species or system mouse; settings: Table 2, free peptide
Procedure: as §1

[4] = target: thrombospondin binding to sulfatide; assay: Inhibition of 125I-thrombospondin binding to sulfatide; design: species or system human; settings: for IC50: Table 1, free peptide
Procedure: as §1

[5] = target: basic fibroblast growth factor (FGF-2) binding to heparin; assay: Inhibition of 125I-bFGF binding to heparin-BSA conjugate; settings: retro-inverso peptides; read-out: IC50 for Inhibition of Binding
Procedure: Binding of ^125 I-bFGF to heparin was determined using an immobilized heparin-BSA conjugate as previously described (Guo, et al. (1992) Proc. Nat'l Acad. Sci. 89:3040-3044). ^125 I-bFGF, prepared as described by Neufeld, et al, (1985), J. Biol. Chem. 260:13860-13868, was added described above, and incubated for 2 hours at 25° C. Bound radioactivity was determined after washing and cutting the wells from the plate. FIGS. 40A, B and C show the inhibition of ^125 I-bFGF binding to heparin by a number of TSP peptide analogs.

[6] = Table 1, free peptide, read-out: IC50 Heparin Binding, inhibition of 125I-thrombospondin binding
[7] = retro-inverso peptides, free, read-out: IC50 Inhibitory Activity, Free Peptide

SMILES | IC50 [1] | IC50 [2, 6] | inhibition of thrombospondin binding to heparin, in words [2] | IC50 [3] | IC50 [4] | IC50 [2, 7] | IC50 [5] | fold less active than CSVTCG ([4]; thrombospondin binding to sulfatide)
CC(C)C[C@H](NC(=O)[C@H](CCCNC(=N)N)NC(=O)[C@H](CO)NC(=O)[C@H](CCCNC(=N)N)NC(=O)[C@H](CCCCN)NC(=O)[C@H](CCC(N)=O)NC(=O)[C@@H](NC(=O)CNC(=O)CNC(=O)CNC(=O)[C@H](CS)NC(=O)[C@@H](NC(=O)[C@@H](N)C(C)C)[C@@H](C)O)C(C)C)C(=O)O [Peptide 245, VTCGGGVQKRSRL] (H-VTCGGGVQKRSRL-OH) | > 200 µM | > 200 µM | inactive | ~200 µM | > 200 µM |  |  | 
CC(=O)N[C@H](CS)C(=O)N[C@H](CO)C(=O)N[C@H](CO)C(=O)N[C@H](Cc1c[nH]c2ccccc12)C(=O)N1CCC[C@@H]1C(=O)N[C@H](CO)C(=O)N[C@H](Cc1c[nH]c2ccccc12)C(=O)N[C@H](Cc1c[nH]cn1)C(=O)N[C@H](CO)C(=O)N[C@H](Cc1c[nH]c2ccccc12)C(=O)NCC(=O)NCC(=O)N[C@H](CC(=O)O)C(=O)N[C@H](CCC(N)=O)C(=O)N[C@H](CCCCN)C(=O)N[C@H](C)C(=O)N[C@H](CCCNC(=N)N)C(=O)N[C@H](CCCCN)C(N)=O [Peptide 474, ri-amKRAKQDGGWSHWSPWSSCac] (Ac-[dC][dS][dS][dW][dP][dS][dW][dH][dS][dW]GG[dD][dQ][dK][dA][dR][dK]-NH2) |  |  |  |  |  | 0.1 µM | 0.95 µM | 
CC(C)[C@H](N)C(=O)N[C@H](C(=O)N[C@@H](CS)C(=O)NCC(=O)O)[C@@H](C)O [Peptide 203, VTCG] (H-VTCG-OH) | > 200 µM | > 200 µM | inactive | > 200 µM | > 200 µM |  |  | 
CC(=O)N[C@H](C)C(=O)N[C@H](C)C(=O)N[C@H](Cc1c[nH]c2ccccc12)C(=O)N[C@H](Cc1c[nH]cn1)C(=O)N[C@H](CO)C(=O)N[C@H](Cc1c[nH]c2ccccc12)C(=O)NCC(=O)N[C@H](C)C(=O)N[C@H](CCC(N)=O)C(=O)N[C@H](CCCCN)C(=O)N[C@H](C)C(=O)N[C@H](CCCNC(=N)N)C(=O)N[C@H](CCCCN)C(N)=O [Peptide 529, ri-amKRAKQAGWSHWAAac] (Ac-[dA][dA][dW][dH][dS][dW]G[dA][dQ][dK][dA][dR][dK]-NH2) |  |  |  |  |  |  | 0.37 µM | 
CC(C)[C@H](NC(=O)[C@H](CO)NC(=O)[C@@H](N)CS)C(=O)N[C@H](C(=O)O)[C@@H](C)O [Peptide 234, CSVT] (H-CSVT-OH) | > 200 µM | > 200 µM | inactive | > 200 µM | > 200 µM |  |  | 
CC(=O)N[C@H](C)C(=O)N[C@H](C)C(=O)N[C@H](Cc1c[nH]c2ccccc12)C(=O)N[C@H](Cc1c[nH]cn1)C(=O)N[C@H](CO)C(=O)N[C@H](Cc1c[nH]c2ccccc12)C(=O)NCC(=O)N[C@H](C)C(=O)N[C@H](CCC(N)=O)C(=O)N[C@H](CCCCN)C(=O)N[C@H](Cc1ccccc1)C(=O)N[C@H](CCCNC(=N)N)C(=O)N[C@H](CCCCN)C(N)=O [Peptide 530, ri-amKRFKQAGWSHWAAac] (Ac-[dA][dA][dW][dH][dS][dW]G[dA][dQ][dK][dF][dR][dK]-NH2) |  |  |  |  |  |  | 0.65 µM | 
CC[C@H](C)[C@H](NC(=O)[C@@H](NC(=O)CNC(=O)[C@H](CC(=O)O)NC(=O)CNC(=O)[C@H](CS)NC(=O)[C@@H](NC(=O)[C@@H](N)C(C)C)[C@@H](C)O)C(C)C)C(=O)N[C@H](C(=O)N[C@@H](CCCNC(=N)N)C(=O)O)[C@@H](C)O [Peptide 205, VTCGDGVITR] (H-VTCGDGVITR-OH) | > 200 µM | > 200 µM |  | > 200 µM | > 200 µM |  |  | 
CC(=O)N[C@H](C)C(=O)N[C@H](C)C(=O)N[C@H](Cc1c[nH]c2ccccc12)C(=O)N[C@H](Cc1c[nH]cn1)C(=O)N[C@H](CO)C(=O)N[C@H](Cc1c[nH]c2ccccc12)C(=O)NCC(=O)N[C@H](C)C(=O)N[C@H](CCC(N)=O)C(=O)N[C@H](CCCCN)C(=O)N[C@H](C)C(=O)N[C@H](CCCCN)C(=O)N[C@H](CCCCN)C(N)=O [Peptide 537, ri-amKKAKQAGWSHWAAac] (Ac-[dA][dA][dW][dH][dS][dW]G[dA][dQ][dK][dA][dK][dK]-NH2) |  |  |  |  |  |  | 0.1 µM | 
CC(C)[C@H](NC(=O)[C@H](CO)NC(=O)[C@@H](N)CO)C(=O)N[C@H](C(=O)N[C@@H](CS)C(=O)NCC(=O)O)[C@@H](C)O [Peptide 237, SSVTCG] (H-SSVTCG-OH) | 85 µM | 58 µM | very weak inhibitor | 100 µM | 30 µM |  |  | 2 fold
CC(C)[C@H](N)C(=O)N[C@H](C(=O)N[C@@H](CS)C(=O)NCC(=O)NCC(=O)NCC(=O)N[C@H](C(=O)N[C@@H](CCC(N)=O)C(=O)N[C@@H](CCCCN)C(=O)N[C@@H](CCCNC(=N)N)C(=O)O)C(C)C)[C@@H](C)O [Peptide 204, VTCGGGVQKR] (H-VTCGGGVQKR-OH) | > 200 µM | > 200 µM |  | > 200 µM | > 200 µM |  |  | 
CC(=O)N[C@H](C)C(=O)N[C@H](C)C(=O)N[C@H](Cc1c[nH]c2ccccc12)C(=O)N[C@H](Cc1c[nH]cn1)C(=O)N[C@H](CO)C(=O)N[C@H](Cc1c[nH]c2ccccc12)C(=O)NCC(=O)N[C@H](C)C(=O)N[C@H](CCC(N)=O)C(=O)N[C@H](CCCNC(=N)N)C(=O)N[C@H](C)C(=O)N[C@H](CCCNC(=N)N)C(=O)N[C@H](CCCCN)C(N)=O [Peptide 536, ri-amKRARQAGWSHWAAac] (Ac-[dA][dA][dW][dH][dS][dW]G[dA][dQ][dR][dA][dR][dK]-NH2) |  |  |  |  |  |  | 0.95 µM | 
CC(C)[C@H](NC(=O)[C@H](CO)NC(=O)[C@H](CS)NC(=O)[C@H](CO)NC(=O)[C@@H](N)CO)C(=O)N[C@H](C(=O)O)[C@@H](C)O [Peptide 238, SSCSVT] (H-SSCSVT-OH) | > 200 µM | 85 µM | weak inhibition of thrombospondin binding | > 200 µM | > 100 µM |  |  | 
CC[C@H](C)[C@H](NC(=O)CNC(=O)[C@H](CC(N)=O)NC(=O)CNC(=O)[C@H](CS)NC(=O)[C@H](CO)NC(=O)[C@@H](N)[C@@H](C)O)C(=O)N[C@@H](CCC(N)=O)C(=O)N[C@@H](CCC(N)=O)C(=O)N[C@@H](CCCNC(=N)N)C(=O)O [Peptide 206, TSCGNGIQQR] (H-TSCGNGIQQR-OH) | > 200 µM | > 200 µM |  | > 200 µM | > 200 µM |  |  | 
C[C@@H](NC(=O)CCS)C(=O)N[C@H](C)C(=O)N[C@H](Cc1c[nH]c2ccccc12)C(=O)N[C@H](Cc1c[nH]cn1)C(=O)N[C@H](CO)C(=O)N[C@H](Cc1c[nH]c2ccccc12)C(=O)NCCCCC(=O)N[C@H](C)C(=O)N[C@H](CCC(N)=O)C(=O)N[C@H](CCCCN)C(=O)N[C@H](C)C(=O)N[C@H](CCCNC(=N)N)C(=O)N[C@H](CCCCN)C(N)=O [ri-amKRAKQUWSHWAAtp] ([Mpa][dA][dA][dW][dH][dS][dW][Ava][dA][dQ][dK][dA][dR][dK]-NH2) |  |  |  |  |  | 0.046 µM |  | 
CC(C)[C@H](NC(=O)[C@H](CO)NC(=O)[C@H](C)N)C(=O)N[C@H](C(=O)O)[C@@H](C)O [Peptide 236, ASVT] (H-ASVT-OH) | > 200 µM | > 200 µM |  | > 200 µM | > 200 µM |  |  | 
CC(C)[C@H](NC(=O)[C@H](CO)NC(=O)[C@@H](N)CO)C(=O)N[C@H](C(=O)O)[C@@H](C)O [Peptide 235, SSVT] (H-SSVT-OH) | > 200 µM | > 200 µM |  | > 200 µM | > 200 µM |  |  | 
